Experimental data: patent US8044079B2, “Substituted oxindole derivatives, medicaments containing said derivatives and use thereof” (Abbott GmbH & Co. KG, priority 2005, dated 2011)
pKi: −log10 of the molar value.

molecular target: T1, human vasopressin V1b receptor (Homo sapiens, UniProt P47901); test: Vasopressin V1b receptor binding test; conditions: membranes of CHO-K1 cells with human V1b receptor, displacement of 1.5 nM 3H-AVP; for compounds with more than one stereogenic center the diastereomer with greater affinity
T1 construct: expressed in transfected cells; host or cells: CHO-K1 (cell line hV1b_3H2_CHO), membrane preparation
T1 sequence (P47901 1-424): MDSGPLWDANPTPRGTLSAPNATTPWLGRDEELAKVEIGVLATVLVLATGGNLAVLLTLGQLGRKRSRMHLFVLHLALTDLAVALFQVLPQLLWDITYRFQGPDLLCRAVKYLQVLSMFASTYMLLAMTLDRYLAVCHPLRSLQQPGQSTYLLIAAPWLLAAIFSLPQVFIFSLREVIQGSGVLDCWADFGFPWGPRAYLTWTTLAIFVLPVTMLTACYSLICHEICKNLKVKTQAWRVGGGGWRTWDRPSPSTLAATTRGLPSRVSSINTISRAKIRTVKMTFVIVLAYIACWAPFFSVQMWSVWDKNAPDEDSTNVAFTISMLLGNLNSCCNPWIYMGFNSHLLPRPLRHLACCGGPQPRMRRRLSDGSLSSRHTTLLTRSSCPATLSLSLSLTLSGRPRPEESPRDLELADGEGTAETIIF
Description: Vasopressin V1b Receptor Binding Test:
The test substances were dissolved at a concentration of 10^−2 M in DMSO, and were further diluted to 5×10^−4 M to 5×10^−9 M in DMSO. This DMSO predilution series was diluted 1:10 with test buffer. In the test assay the substance concentration was further diluted to 1:5 (2% DMSO in the assay).
The membrane pellet was homogenized again as described and centrifuged, and was then taken up in 50 mM tris-HCl at pH 7.4, homogenized, and frozen in aliquots at −190° C. and stored in liquid nitrogen.
The incubation buffer was 50 mM tris, 10 mM MgCl2, and 0.1% BSA at pH 7.4. […] The nonspecific binding was determined using 1 μM AVP (Bachem #H1780). All determinations were performed in triplicate. After incubation (60 minutes at room temperature), the free radioligand was filtered off by vacuum filtration (Skatron 7000 cell harvester) through Wathman GF/B fiberglass filter mats, and the filters were transferred to scintillation vessels. The liquid scintillation measurement was conducted in a Model 2000 or 2200CA TriCarb unit (Packard). The measured cpm was converted to dpm using a standard quench series.
The binding parameters were calculated by nonlinear regression in SAS.
The affinities of the compounds according to the invention for human vasopressin receptor V1b were measured according to the above test, and the affinity constants (Ki) were determined.

pKi	SMILES
6.00 to 7.00	COc1ccc(S(=O)(=O)N2C(=O)C(c3ccc(CN4CCOCC4)cc3OC)(N3CCC[C@H]3c3ncco3)c3cc(C#N)ccc32)cc1 (stereo partly drawn) [Example 43, 5-Cyano-1-(4-methoxybenzenesulfonyl)-3-(2-methoxy-4-morpholin-4-ylmethylphenyl)-3-((S)-2-oxazol-2-yl-pyrrolidin-1-yl)-1,3-dihydroindol-2-one]
> 8.00	CNCc1ccc(OC)c(C2(N3CCC[C@H]3c3ncco3)C(=O)N(S(=O)(=O)c3ccc(OC)cc3)c3ccc(C#N)cc32)c1 (stereo partly drawn) [Example 45, 5-Cyano-1-(4-methoxybenzenesulfonyl)-3-(2-methoxy-5-methylaminomethylphenyl)-3-((S)-2-oxazol-2-yl-pyrrolidin-1-yl)-1,3-dihydroindol-2-one]
7.00 to 8.00	COc1ccc(S(=O)(=O)N2C(=O)C(c3cc(CN(C)C)ccc3OC)(N3CCC[C@H]3c3ncco3)c3cc(C#N)ccc32)cc1 (stereo partly drawn) [Example 46, 5-Cyano-3-(5-dimethylaminomethyl-2-methoxyphenyl)-1-(4-methoxybenzenesulfonyl)-3-((S)-2-oxazol-2-yl-pyrrolidin-1-yl)-1,3-dihydroindol-2-one]
> 8.00	CCNCc1ccc(OC)c(C2(N3CCC[C@H]3c3ncco3)C(=O)N(S(=O)(=O)c3ccc(OC)cc3)c3ccc(C#N)cc32)c1 (stereo partly drawn) [Example 47, 5-Cyano-3-(5-ethylaminomethyl-2-methoxyphenyl)-1-(4-methoxybenzenesulfonyl)-3-((S)-2-oxazol-2-yl-pyrrolidin-1-yl)-1,3-dihydroindol-2-one]
7.00 to 8.00	CCN(C)Cc1ccc(OC)c(C2(N3CCC[C@H]3c3ncco3)C(=O)N(S(=O)(=O)c3ccc(OC)cc3)c3ccc(C#N)cc32)c1 (stereo partly drawn) [Example 48, 5-Cyano-3-{5-[(ethylmethylamino)methyl]-2-methoxyphenyl}-1-(4-methoxybenzenesulfonyl)-3-((S)-2-oxazol-2-yl-pyrrolidin-1-yl)-1,3-dihydroindol-2-one]
7.00 to 8.00	CCN(CC)Cc1ccc(OC)c(C2(N3CCC[C@H]3c3ncco3)C(=O)N(S(=O)(=O)c3ccc(OC)cc3)c3ccc(C#N)cc32)c1 (stereo partly drawn) [Example 49, 5-Cyano-3-(5-diethylaminomethyl-2-methoxyphenyl)-1-(4-methoxybenzenesulfonyl)-3-((S)-2-oxazol-2-yl-pyrrolidin-1-yl)-1,3-dihydroindol-2-one]
> 8.00	CCCNCc1ccc(OC)c(C2(N3CCC[C@H]3c3ncco3)C(=O)N(S(=O)(=O)c3ccc(OC)cc3)c3ccc(C#N)cc32)c1 (stereo partly drawn) [Example 50, 5-Cyano-1-(4-methoxybenzenesulfonyl)-3-(2-methoxy-5-propylaminomethylphenyl)-3-((S)-2-oxazol-2-yl-pyrrolidin-1-yl)-1,3-dihydroindol-2-one]
7.00 to 8.00	COc1ccc(S(=O)(=O)N2C(=O)C(c3cc(CNC(C)C)ccc3OC)(N3CCC[C@H]3c3ncco3)c3cc(C#N)ccc32)cc1 (stereo partly drawn) [Example 52, 5-Cyano-3-[5-(isopropylaminomethyl)-2-methoxyphenyl]-1-(4-methoxybenzenesulfonyl)-3-((S)-2-oxazol-2-yl-pyrrolidin-1-yl)-1,3-dihydroindol-2-one]
7.00 to 8.00	COc1ccc(S(=O)(=O)N2C(=O)C(c3cc(CN(C)C(C)C)ccc3OC)(N3CCC[C@H]3c3ncco3)c3cc(C#N)ccc32)cc1 (stereo partly drawn) [Example 53, 5-Cyano-3-{5-[(isopropylmethylamino)methyl]-2-methoxyphenyl}-1-(4-methoxybenzenesulfonyl)-3-((S)-2-oxazol-2-yl-pyrrolidin-1-yl)-1,3-dihydroindol-2-one]
7.00 to 8.00	COc1ccc(S(=O)(=O)N2C(=O)C(c3cc(CNCCO)ccc3OC)(N3CCC[C@H]3c3ncco3)c3cc(C#N)ccc32)cc1 (stereo partly drawn) [Example 54, 5-Cyano-3-{5-[(2-hydroxyethylamino)methyl]-2-methoxyphenyl}-1-(4-methoxybenzenesulfonyl)-3-((S)-2-oxazol-2-yl-pyrrolidin-1-yl)-1,3-dihydroindol-2-one]
7.00 to 8.00	COCCN(C)Cc1ccc(OC)c(C2(N3CCC[C@H]3c3ncco3)C(=O)N(S(=O)(=O)c3ccc(OC)cc3)c3ccc(C#N)cc32)c1 (stereo partly drawn) [Example 55, 5-Cyano-1-(4-methoxybenzenesulfonyl)-3-(2-methoxy-5-{[(2-methoxyethyl)methylamino]methyl}phenyl)-3-((S)-2-oxazol-2-yl-pyrrolidin-1-yl)-1,3-dihydroindol-2-one]
> 8.00	COc1ccc(S(=O)(=O)N2C(=O)C(c3cc(CN4CCN(C)CC4)ccc3OC)(N3CCC[C@H]3c3ncco3)c3cc(C#N)ccc32)cc1 (stereo partly drawn) [Example 56, 5-Cyano-1-(4-methoxybenzenesulfonyl)-3-[2-methoxy-5-(4-methylpiperazin-1-ylmethyl)phenyl]-3-((S)-2-oxazol-2-yl-pyrrolidin-1-yl)-1,3-dihydroindol-2-one]
> 8.00	COc1ccc(S(=O)(=O)N2C(=O)C(c3cc(CN4CCNCC4)ccc3OC)(N3CCC[C@H]3c3ncco3)c3cc(C#N)ccc32)cc1 (stereo partly drawn) [Example 57, 5-Cyano-1-(4-methoxybenzenesulfonyl)-3-(2-methoxy-5-piperazin-1-ylmethylphenyl)-3-((S)-2-oxazol-2-yl-pyrrolidin-1-yl)-1,3-dihydroindol-2-one]
7.00 to 8.00	COc1ccc(S(=O)(=O)N2C(=O)C(c3cc(CN4CCOCC4)ccc3OC)(N3CCC[C@H]3c3ncco3)c3cc(C#N)ccc32)cc1 (stereo partly drawn) [Example 58, 5-Cyano-1-(4-methoxybenzenesulfonyl)-3-(2-methoxy-5-morpholin-4-ylmethylphenyl)-3-((S)-2-oxazol-2-yl-pyrrolidin-1-yl)-1,3-dihydroindol-2-one]
7.00 to 8.00	COc1ccc(S(=O)(=O)N2C(=O)C(c3cc(CN4CCCC4)ccc3OC)(N3CCC[C@H]3c3ncco3)c3cc(C#N)ccc32)cc1 (stereo partly drawn) [Example 60, 5-Cyano-1-(4-methoxybenzenesulfonyl)-3-(2-methoxy-5-pyrrolidin-1-ylmethylphenyl)-3-((S)-2-oxazol-2-yl-pyrrolidin-1-yl)-1,3-dihydroindol-2-one]
7.00 to 8.00	COc1ccc(S(=O)(=O)N2C(=O)C(c3cc(CN4CCCCC4)ccc3OC)(N3CCC[C@H]3c3ncco3)c3cc(C#N)ccc32)cc1 (stereo partly drawn) [Example 61, 5-Cyano-1-(4-methoxybenzenesulfonyl)-3-(2-methoxy-5-piperidin-1-ylmethylphenyl)-3-((S)-2-oxazol-2-yl-pyrrolidin-1-yl)-1,3-dihydroindol-2-one]
7.00 to 8.00	CNCc1ccc(OC)c(C2(N3CCC[C@H]3c3ncco3)C(=O)N(S(=O)(=O)c3ccc(OC)cc3)c3cc(Cl)c(Cl)cc32)c1 (stereo partly drawn) [Example 63, 5,6-Dichloro-1-(4-methoxybenzenesulfonyl)-3-(2-methoxy-5-methylaminomethylphenyl)-3-((S)-2-oxazol-2-yl-pyrrolidin-1-yl)-1,3-dihydroindol-2-one]
7.00 to 8.00	COc1ccc(S(=O)(=O)N2C(=O)C(c3cc(CN(C)C)ccc3OC)(N3CCC[C@H]3c3ncco3)c3cc(Cl)c(Cl)cc32)cc1 (stereo partly drawn) [Example 64, 5,6-Dichloro-3-(5-dimethylaminomethyl-2-methoxyphenyl)-1-(4-methoxybenzenesulfonyl)-3-((S)-2-oxazol-2-yl-pyrrolidin-1-yl)-1,3-dihydroindol-2-one]
7.00 to 8.00	CCNCc1ccc(OC)c(C2(N3CCC[C@H]3c3ncco3)C(=O)N(S(=O)(=O)c3ccc(OC)cc3)c3cc(Cl)c(Cl)cc32)c1 (stereo partly drawn) [Example 65, 5,6-Dichloro-3-(5-ethylaminomethyl-2-methoxyphenyl)-1-(4-methoxybenzenesulfonyl)-3-((S)-2-oxazol-2-yl-pyrrolidin-1-yl)-1,3-dihydroindol-2-one]
7.00 to 8.00	CCCNCc1ccc(OC)c(C2(N3CCC[C@H]3c3ncco3)C(=O)N(S(=O)(=O)c3ccc(OC)cc3)c3cc(Cl)c(Cl)cc32)c1 (stereo partly drawn) [Example 68, 5,6-Dichloro-1-(4-methoxybenzenesulfonyl)-3-(2-methoxy-5-propylaminomethylphenyl)-3-((S)-2-oxazol-2-yl-pyrrolidin-1-yl)-1,3-dihydroindol-2-one]
7.00 to 8.00	COc1ccc(S(=O)(=O)N2C(=O)C(c3cc(CNC(C)C)ccc3OC)(N3CCC[C@H]3c3ncco3)c3cc(Cl)c(Cl)cc32)cc1 (stereo partly drawn) [Example 70, 5,6-Dichloro-3-[5-(isopropylaminomethyl)-2-methoxyphenyl]-1-(4-methoxybenzenesulfonyl)-3-((S)-2-oxazol-2-yl-pyrrolidin-1-yl)-1,3-dihydroindol-2-one]
